Test results taken from patent US20050118601A1, “Enhancer sequence of the 5-aminolevulinic acid synthase gene” (priority 2002, published 2005).

How the values were obtained:
[1] = molecular target: T1, mCAR (Mus musculus, UniProt O35627); experiment: Transactivation assays of human ALAS1 fragments with mCAR in CV-1 and HepG2 cells; assay type: cell-based
T1 construct: expressed in transfected cells; host or cells: monkey kidney CV-1 cells and human hepatoma HepG2 cells
T1 sequence (O35627 1-358): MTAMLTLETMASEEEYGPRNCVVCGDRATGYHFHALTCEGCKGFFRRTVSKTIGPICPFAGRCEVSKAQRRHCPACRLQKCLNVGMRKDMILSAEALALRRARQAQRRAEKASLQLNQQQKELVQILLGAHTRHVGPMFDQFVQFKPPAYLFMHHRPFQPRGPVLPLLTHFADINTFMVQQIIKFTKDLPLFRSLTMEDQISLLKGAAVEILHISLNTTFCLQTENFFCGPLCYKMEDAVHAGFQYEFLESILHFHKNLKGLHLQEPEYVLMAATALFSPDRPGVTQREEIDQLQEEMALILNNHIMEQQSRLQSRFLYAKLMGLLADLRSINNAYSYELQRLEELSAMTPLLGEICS
Method: In transactivation assays in a heterologous cell line (monkey kidney CV-1 cells) and human hepatoma HepG2 cells, we assessed which nuclear receptor conveys the observed activation. The two candidate receptors pregnane X receptor (PXR) and constitutive androstane receptor (CAR) were tested on these fragments.

[2] = test system: human ALAS1 gene fragments (hA795, hA174, hA8, hA240); experiment: Luciferase reporter gene assay of human ALAS1 fragments in LMH cells; assay type: cell-based; conditions: 24 h, 400 μM PB or 250 μM PIA
Method: Fragments were cloned into the pGL3 luciferase reporter vector (Promega Corp) and tested for inducibility by the prototypical HALAS1 inducers phenobarbital (PB) and propylisopropylacetamid (PIA). Four hours after transfection of LMH cells with the constructs, cells were exposed to the drugs for 24 hours, after which luciferase activity was assayed. Results were normalized for transfection efficiency by assaying for activity of co-transfected β-galactosidase. Data shown is one representative experiment (FIG. 11).
We investigated in more detail the contribution of various response element half-sites to drug-induction mediated by this element. Within the hA174 element, an arrangement of three nuclear receptor response element half-sites was found, which lead: to the prediction of a DR-4 type, as well as a DR-5 type response element (of. FIG. 18A). By site-directed mutagenesis, we examined the involvement of each of these half-sites to drug induction. In the context of the 2xhA174 reporter construct, each single half-site was mutated in both copies of the hA174 element. The wild-type and mutant constructs were subsequently tested for reporter gene activation in LMH cells as described above. Cells were induced with 400 μM phenobarbital (PB) or 250 μM propylisopropylacetamid (PIA). As a control, vehicle alone (0.1% DMSO) was added to the cells. After 24 hours, luciferase activity was assayed and normalized against co-transfected β-galactosidase activity in order to compensate for transfection efficiency. […] From this, we conclude that the DR-4 element, consisting of the HS1 and HS2 half-sites, is essential for drug induction. The change in induction observed by mutagenesis of the HS3 half-site may indicate a modulatory role for the half-site alone or as a DR-5 in combination with HS2 in drug induction. Data shown are the mean+1SD of three independent experiments.
In order to define a core sequence retaining inducibility, the hA8 fragment (Seq. Id. No. 10), which carries PCR-introduced KpnI and XhoI restriction sites at its ends, was digested with SacI and NsiI. The resulting four fragments, a 100 bp KpnI/SacI fragment, a 374 bp SacI/NsiI fragment, a 240 bp NsiI/NsiI fragment, and a 231 bp NsiI/XhoI fragment, were cloned into a reporter gene vector and subsequently tested for drug induction in LMH cells. Of these fragments, only the 240 bp fragment (called hA240) (Seq. Id. No. 39) was able to convey transcriptional activation in response to drugs. Within the core hA240 fragment, we then mutated both half-sites of a predicted DR-4 element (cf. FIG. 18B) and observed the effect of this mutation on drug induction (240mutDR4). Alteration of the DR4 element half-sites abolished drug induction in LMH cell reporter gene assays. […]

[3] = test system: mouse 369 bp DRES; experiment: Luciferase reporter gene assay of mouse ALAS1 fragments / 369 bp DRES in LMH cells; assay type: cell-based; conditions: metyrapone 500 μM, glutethimide 500 μM, PIA 250 μM
Method: A 175 bp fragment (441 to 615) (Seq. Id. No. 3) was isolated by digesting the 2.6 kb fragment with SacI/XbaI. All fragments were subcloned in the pGL3LUCpro+MCS vector and the resulting constructs tested for inducibility in LMH reporter gene assay (FIG. 6). […] The 369 bp fragment was termed Drug responsive enhancer sequence DRES.
To compare the 369 bp DRES to other inducible fragments, a series of different drugs was used as inducers: clothrimazole (Clo, 10 μM), dexamethasone (Dex, 50 μM), glutethimide (GE, 500 μM), metyrapone (Met, 500 μM), phenobarbital (PB, 500 μM), PCN (10 μM), propylisopropylacetamide (PIA, 250 μM), rifampicin (Rif, 10 μM), RU486 (10 μM), TCPOBOP (10 μM).
Data shown is from two independent experiments.

[4] = test system: chicken ALAS1 drug responsive enhancer sequence (ADRES) elements; experiment: Luciferase reporter gene assay of chicken ALAS1 5'-flanking fragments / ADRES elements in transfected LMH cells; assay type: cell-based; conditions: LMH cells, 16 h; PIA 250 μM, glutethimide 500 μM, metyrapone 400 μM, dexamethasone 50 μM, RU-486 10 μM, rifampicin 100 μM, TCPOBOP 10 μM; compared with PB 600 μM
Method: The constructs were transfected together with a transfection-control construct expressing β-galactosidase into LMH cells. Cells were then treated with 600 μM PB for 16 h and luciferase assays were performed on the cell extracts. Relative luciferase levels are standardized against cells transfected with vector containing no insert and expressed as fold induction. Experiments were repeated at least three times and data from a representative experiment tested in triplicate are shown here. Error bars represent standard deviations;
Three major subclones were generated from the region upstream of the transcriptional start site, including a 3282 bp SmaI fragment and 5056 bp and 7973 bp EcoRI segments (FIG. 1A). The SmaI clone extends from −167 bp to −3449 bp, whereas the EcoRI subfragments span the regions from −2347 bp to −7402 bp and −7403 bp to −15376 bp, respectively. These subfragments were cloned into the pLucMCS modified luciferase vector containing an SV40 promoter as described in Materials and Methods. Drug inducibility was measured in transiently transfected LMH cells treated with 600 μM PB and compared with control values. […]
The modified enhancers were examined for response to 600 μM PB in luciferase reporter gene assays and the results are presented in FIG. 3.
Leghorn Male Hepatoma (LMH) cells were obtained from the American Type Culture Collection and cultivated in 10 cm dishes in Williams E medium supplemented with 10% FCS, 1% glutamine (2 mM) and 1% penicillin/streptomycin (50 IU/ml). Dishes coated with 0.1% gelatin were used for routine culture of LMH cells in order to facilitate proper seating of the cells onto the plastic plate surface.

[5] = molecular target: T2, mouse CAR (Mus musculus, UniProt O35627); experiment: Transactivation of 369 bp ADRES by mouse CAR in CV-1 cells (CAT reporter); assay type: cell-based; conditions: TCPOBOP, 16 h
T2 construct: expressed in transfected cells; host or cells: CV-1 cells, pSG5 expression vector
T2 sequence (O35627 1-358): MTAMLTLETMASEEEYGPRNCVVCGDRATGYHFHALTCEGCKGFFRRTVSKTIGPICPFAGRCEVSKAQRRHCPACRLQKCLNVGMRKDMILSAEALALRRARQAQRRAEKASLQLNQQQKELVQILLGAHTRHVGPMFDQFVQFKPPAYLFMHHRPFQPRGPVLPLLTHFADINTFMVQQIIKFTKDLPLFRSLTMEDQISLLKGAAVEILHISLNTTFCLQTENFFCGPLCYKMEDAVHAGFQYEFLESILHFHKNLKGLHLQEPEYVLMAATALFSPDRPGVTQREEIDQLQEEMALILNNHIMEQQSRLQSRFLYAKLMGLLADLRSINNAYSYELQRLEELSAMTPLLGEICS
Method: To test the effects of the mutations on transcriptional activation, transactivations in CV-1 cells with mouse PXR and mouse CAR and their respective inducers PCN and TCPOBOP, were performed (FIG. 14). The inducible DNA constructs were subcloned into the CAT5 reporter vector and tested for their ability to be transactivated by nuclear receptor transcription factors in CV-1 cells. Mouse PXR (A) and mouse CAR (B) coding regions cloned into the pSG5 expression vector were cotransfected along with a vector expressing pSV β-galactosidase as control. Cells were then treated for 16 h with either drugs (A, PCN; B, TCPOBOP) or vehicle control and cell extracts were analyzed for CAT expression normalized against β-galactosidase levels. Experiments were repeated at least three times and error bars represent standard deviations.

[6] = test system: ALAS1 mRNA; experiment: ALAS1 mRNA quantification (Taqman real-time PCR) in LMH cells; assay type: cell-based, chicken; conditions: LMH cells, 16 h; PB 600 μM, dexamethasone 50 μM, RU-486 10 μM, rifampicin 100 μM, TCPOBOP 10 μM
Method: We next wanted to compare ADRES-mediated ALAS1 induction levels from reporter gene assays with stimulation of transcription in a physiological system. […] In addition, the common CYP3A inducers dexamethasone (50 μM), metyrapone (400 μM), and 10 μM mifepristone (RU-486) were employed for comparison. We were also interested in the effects of […] 5-pregnen-3β-ol-20-one-16α-carbonitrile (PCN) and rifampicin (100 μM) due to their species-specific effects on PXR activation and CYP3A induction. Messenger RNA was reverse transcribed and levels of ALAS1 cDNA were quantified using the Taqman real-time PCR quantification system as described in Materials and Methods. […] This value was chosen to represent 100% induction, against which all other values are compared.
LMH cells were plated onto 12-well plates, expanded to 70-80% surface density and incubated in serum-free media for 24 h. Cells were then exposed to either drug or vehicle and RNA was isolated with Trizol reagent (Gibco BRL) according to the manufacturer protocol. One μg of total RNA was reverse transcribed with the Moloney murine leukemia virus reverse transcriptase kit (Roche Molecular Biochemicals). PCR was performed using the Taqman PCR core reagent kit (PE Applied Biosystems) and transcript levels quantitated with an ABI Prism 7700 sequence detection system (PE Applied Biosystems). Relative transcript levels were determined using the relative quantitation method measuring the ΔΔCt. The following primers and probes were used in these reactions. […] Transcript levels were measured in separate tubes and GAPDH values were used for normalization of ALAS1 values.

[7] = molecular target: T3, human 9-cis retinoic acid receptor RXRα (human, UniProt P19793 1-462); experiment: electrophoretic mobility shift, hA240 probe; no complex with single receptors (FIG. 19B)
T3 construct: also called human RXRα
T3 sequence (looked up): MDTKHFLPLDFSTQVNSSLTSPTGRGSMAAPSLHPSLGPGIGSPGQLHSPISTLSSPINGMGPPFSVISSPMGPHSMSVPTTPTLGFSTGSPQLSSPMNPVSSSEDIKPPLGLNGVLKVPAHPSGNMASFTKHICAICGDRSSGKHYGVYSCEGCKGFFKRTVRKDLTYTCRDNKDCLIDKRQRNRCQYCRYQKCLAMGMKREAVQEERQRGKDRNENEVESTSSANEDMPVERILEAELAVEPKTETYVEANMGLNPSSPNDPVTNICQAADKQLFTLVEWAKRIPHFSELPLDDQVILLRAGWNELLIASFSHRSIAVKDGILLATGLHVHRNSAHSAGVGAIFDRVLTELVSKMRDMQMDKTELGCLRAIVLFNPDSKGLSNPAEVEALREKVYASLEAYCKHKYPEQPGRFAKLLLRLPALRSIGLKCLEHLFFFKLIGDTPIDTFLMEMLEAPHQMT
Text: FIG. 19 depicts the results of an electrophoretic mobility shift assay, assaying the ability of human PXR and human CAR to bind to the hA174 and hA240 elements. Binding of these nuclear receptors happens in a heterodimeric state with the human 9-cis retinoic acid receptor RXRα. From expression plasmids encoding human RXRα, […] or CAR, receptor protein was made in vitro using the TNT reticulocyte lysate coupled transcription/translation system (Promega Corp.).
FIG. 19B: Instead of the hA174 fragment, wild-type or DR4-mutant hA240 fragment was radiolabeled and used as probe. Lanes 1-4: Wildtype hA240 was incubated with no receptor (mock transcription/translation) or with RXRα, PXR or CAR alone. No complex is observed using single receptors. Lanes 5 and 7: Wild-type hA240 was incubated with RXRα and PXR or RXRα and CAR, upon which complex formation between radiolabeled probe and protein is observed. Lanes 6 and 8: Same conditions as in lanes 5 and 7, but instead of wild-type probe, radiolabeled hA240DR4(2) mutant was used. No complex is formed.

## C[C@]12CC[C@@H](O)C[C@@H]1CC[C@@H]1[C@@H]2CC[C@]2(C)C=CC[C@@H]12 [3α-androstenol]
[1]; human ALAS1 fragments hA795, hA8, hA174, inverse agonist
  mCAR induced activity remaining after repression: approximately 50%

## CCCC(C(N)=O)C(C)C (stereo not shown) [PIA, Propylisopropylacetamide]
[2]
  inducibility of 2xhA174, HS1 or HS2 half-site mutated: abolishment of inducibility
  induction of 2xhA174, HS3 half-site altered: merely reduces induction levels
[3]
  induction of the 369 bp DRES, ranking of drugs: strongest inducer
[4]
  ADRES activation in reporter assays: in excess of levels obtained from PB treatment

## Clc1cnc(Oc2ccc(Oc3ncc(Cl)cc3Cl)cc2)c(Cl)c1 [TCPOBOP, 1,4-Bis[2-(3,5-dichloropyridyloxy)]benzene]
[5]
  induction capacity, DR4-1,2/hs1,2 quadruple mutant: completely eliminated
  induction exceeding basal levels, DR4-2/hs1 construct: 1.4 fold
  induction, DR4-2/hs2 construct or DR4-2 double mutant: no induction was observed
  response, DR4-1 single and double mutants: did not exhibit any response
[6]
  effect on ALAS1 mRNA levels: no response
[4]
  ADRES activation in reporter assays: no response
[1]; human ALAS1 fragments, direct agonist
  reversal of 3α-androstenol repression of mCAR induced activity: reversible

B1: human pregnane X receptor (PXR) (receptor, UniProt O75469 1-434, looked up)
chain: MEVRPKESWNHADFVHCEDTESVPGKPSVNADEEVGGPQICRVCGDKATGYHFNVMTCEGCKGFFRRAMKRNARLRCPFRKGACEITRKTRRQCQACRLRKCLESGMKKEMIMSDEAVEERRALIKRKKSERTGTQPLGVQGLTEEQRMMIRELMDAQMKTFDTTFSHFKNFRLPGVLSSGCELPESLQAPSREEAAKWSQVRKDLCSLKVSLQLRGEDGSVWNYKPPADSGGKEIFSLLPHMADMSTYMFKGIISFAKVISYFRDLPIEDQISLLKGAAFELCQLRFNTVFNAETGTWECGRLSYCLEDTAGGFQQLLLEPMLKFHYMLKKLQLHEEEYVLMQAISLFSPDRPGVLQHRVVDQLQEQFAITLKSYIECNRPQPAHRFLFLKIMAMLTELRSINAQHTQRLLRIQDIHPFATPLMQELFGITGS
notes: also called human PXR; hPXR
[7]
  binding result: binds
